Test results reported in patent publication EP0554004A2, “Cephem compounds and antibacterial agents” (KATAYAMA SEIYAKUSYO CO. Ltd., priority 1992, dated 1993).
Where a name gives a salt, the structure may show the parent alone.

Assays:
[1] = test system: Staphylococcus aureus 195; test: MIC against standard strains (Test Example 1); assay type: cell-based; conditions: Staphylococcus aureus 195 (MRSA); Muller-Hinton agar, 37°C overnight
Description: (§1) By using each test strain cultured overnight at 37°C in a Muller-Hinton broth, there was prepared a bacterial solution with a bacterial cell population of 1 x 10^6 CFU/mi of the same bouillon. The bacterial solution was inoculated into the Muller-Hinton agar media each containing respectively one test agent and, after overnight incubation at 37°C, the minimum concentration that inhibited growth of the bacteria was determined and shown as MIC also in Table 1.
(§2) Staphylococcus aureus 167 and Staphylococcus aureus 195 used in the test were MRSA. CTM (cefotiam) and FMOX (flomoxef) were used as control agents.

[2] = test system: Staphylococcus epidermidis IAM 1296; test: MIC against standard strains (Test Example 1); assay type: cell-based; conditions: IAM1296, Muller-Hinton agar, 37°C overnight
Description: as §1, §2

[3] = test system: Bacillus subtilis ATCC 6633; test: MIC against standard strains (Test Example 1); assay type: cell-based; conditions: ATCC6633, Muller-Hinton agar, 37°C overnight
Description: as §1, §2

[4] = test system: Staphylococcus aureus 167; test: MIC against standard strains (Test Example 1); assay type: cell-based; conditions: Staphylococcus aureus 167 (MRSA); Muller-Hinton agar, 37°C overnight
Description: as §1, §2

Proteus vulgalis OX-19 = test: MIC against standard strains (Test Example 1); assay type: cell-based; conditions: Muller-Hinton agar, 37°C overnight
Description: as §1, §2

[5] = test system: Staphylococcus aureus 209P JC-1; test: MIC against standard strains (Test Example 1); assay type: cell-based; conditions: Muller-Hinton agar, 37°C overnight
Description: as §1, §2

[6] = test system: Morganella morganii IFO 3848; test: MIC against standard strains (Test Example 1); assay type: cell-based; conditions: IFO3848, Muller-Hinton agar, 37°C overnight
Description: as §1, §2

[7] = test system: Proteus mirabilis IFO 3849; test: MIC against standard strains (Test Example 1); assay type: cell-based; conditions: IFO3849, Muller-Hinton agar, 37°C overnight
Description: as §1, §2

[8] = test system: Escherichia coli CSH2 (RE45); test: MIC against standard strains (Test Example 1); assay type: cell-based
Description: as §1, §2

[9] = test system: Micrococcus luteus ATCC 9341; test: MIC against standard strains (Test Example 1); assay type: cell-based; conditions: ATCC9341, Muller-Hinton agar, 37°C overnight
Description: as §1, §2

[10] = test system: Serratia marcescens IAM 1184; test: MIC against standard strains (Test Example 1); assay type: cell-based; conditions: IAM1184, Muller-Hinton agar, 37°C overnight
Description: as §1, §2

[11] = test system: Staphylococcus aureus Smith; test: MIC against standard strains (Test Example 1); assay type: cell-based; conditions: Muller-Hinton agar, 37°C overnight
Description: as §1, §2

[12] = test system: Klebsiella pneumoniae IFO 3317; test: MIC against standard strains (Test Example 1); assay type: cell-based; conditions: IFO3317, Muller-Hinton agar, 37°C overnight
Description: as §1, §2

[13] = test system: Escherichia coli NIHJ JC-2; test: MIC against standard strains (Test Example 1); assay type: cell-based; conditions: NIHJJC2, Muller-Hinton agar, 37°C overnight
Description: as §1, §2

[14] = test system: Klebsiella pneumoniae No. 42; test: MIC against standard strains (Test Example 1); assay type: cell-based; conditions: Muller-Hinton agar, 37°C overnight
Description: as §1, §2

[15] = test system: Psuedomonas aeruginosa IFO 3445; test: MIC against standard strains (Test Example 1); assay type: cell-based; conditions: Muller-Hinton agar, 37°C overnight
Description: as §1, §2

[16] = test system: Escherichia coli CSH2 (RK1); test: MIC against standard strains (Test Example 1); assay type: cell-based
Description: as §1, §2

[17] = test system: Citrobacter freundii ATCC 8090; test: MIC against standard strains (Test Example 1); assay type: cell-based; conditions: ATCC8090, Muller-Hinton agar, 37°C overnight
Description: as §1, §2

[18] = test system: Pseudomonas aeruginosa NCTC 10490; test: MIC against standard strains (Test Example 1); assay type: cell-based; conditions: NCTC10490, Muller-Hinton agar, 37°C overnight
Description: as §1, §2

[19] = test system: Enterobacter cloacae ATCC 13407; test: MIC against standard strains (Test Example 1); assay type: cell-based; conditions: ATCC13407, Muller-Hinton agar, 37°C overnight
Description: as §1, §2

clinically isolated MRSA = test: Antibacterial potency against clinically isolated MRSA (Test Example 2); assay type: cell-based, methicillin-resistant Staphylococcus aureus; conditions: Staphylococcus aureus, 52 strains of clinically isolated MRSA; for MIC50: concentration inhibiting growth of 50% of the strains (Test Example 2); for MIC90: concentration inhibiting growth of 90% of the strains (Test Example 2)
Description: A test on the antibacterial potency against clinically isolated MRSA was conducted in the following way.
52 strains of clinically isolated MRSA were used, and MIC was determined for each of the strains according to the standard method of the Japan Chemotherapical Society as in Test Example 1. The minimum growth inhibitory concentration which inhibited growth of 50% of the strains tested was expressed as MIC50 (µg/ml), and the minimum growth inhibitory concentration which inhibited growth of 90% of the strains was expressed as MIC90 (µg/ml).
In this test, FMOX (flomoxef), IPM/CS (imipenem/cilastatin), CMZ (cefmetazole), MINO (minocycline) and DMPPC (methicillin) were used as control agents.

| Structure (SMILES) | MIC [1] [µg/mL] | MIC [2] [µg/mL] | MIC [3] [µg/mL] | MIC [4] [µg/mL] | MIC (Proteus vulgalis OX-19) [µg/mL] | MIC [5] [µg/mL] | MIC [6] [µg/mL] | MIC [7] [µg/mL] | MIC [8] [µg/mL] | MIC [9] [µg/mL] | MIC [10] [µg/mL] | MIC [11] [µg/mL] | MIC [12] [µg/mL] | MIC [13] [µg/mL] | MIC [14] [µg/mL] | MIC [15] [µg/mL] | MIC [16] [µg/mL] | MIC [17] [µg/mL] | MIC [18] [µg/mL] | MIC [19] [µg/mL] | further results |
| --- | --- | --- | --- | --- | --- | --- | --- | --- | --- | --- | --- | --- | --- | --- | --- | --- | --- | --- | --- | --- | --- |
| Nc1nc(/C(=N/O)C(=O)N[C@@H]2C(=O)N3C(C(=O)[O-])=C(C[n+]4ccc(-c5csc(N)n5)cc4)CS[C@H]23)cs1 [Compound (5), 7β-[2-(2-aminothiazol-4-yl)-2-syn-hydroxyiminoacetamido]-3-[[4-(2-aminothiazol-4-yl)-1-pyridi-i-nio]methyl]-3-cephem-4-carboxylic acid chloride] | 3.13 | 0.1 | 0.2 | 6.25 | 0.2 | 0.2 | 0.05 | 0.1 | 0.05 | 0.025 | 0.2 | 0.2 | 0.05 | 0.2 | 0.1 | 25 | 0.2 | 0.2 | 1.56 | 0.78 | MIC50 (clinically isolated MRSA): 3.13 µg/mL; MIC90 (clinically isolated MRSA): 8.69 µg/mL |
| NC(=O)Nc1ccc[n+](CC2=C(C(=O)[O-])N3C(=O)[C@@H](NC(=O)/C(=N\O)c4csc(N)n4)[C@H]3SC2)c1 [Compound (4), 7β-[2-(2-aminothiazol-4-yl)-2-syn-hydroxyiminoacetamido]-3-[(3-ureido-1-pyridinio)methyl]-3-cephem-4-carboxylic acid chloride] | 3.13 | 0.05 | 0.2 | 12.5 | 0.78 | 0.1 | 0.05 | 0.1 | 0.39 | 0.39 | 0.1 | 0.2 | 0.1 | 0.1 | 0.39 | 12.5 | 0.78 | 0.1 | 1.56 | 0.39 | MIC50 (clinically isolated MRSA): 2.17 µg/mL; MIC90 (clinically isolated MRSA): 6.16 µg/mL |
| CC(=O)c1ccc[n+](CC2=C(C(=O)[O-])N3C(=O)[C@@H](NC(=O)/C(=N\O)c4csc(N)n4)[C@H]3SC2)c1 [Compound (2), 7β-[2-(2-aminothiazol-4-yl)-2-syn-hydroxyiminoacetamido]-3-[(3-acetyl-1-pyridinio)methyl]-3-cephem-4-carboxylic acid chloride] | 6.25 | 0.2 | 0.78 | 12.5 | 0.39 | 0.2 | 0.2 | 0.39 | 0.78 | 0.1 | 0.39 | 0.39 | 0.39 | 0.39 | 0.78 | 25 | 0.78 | 0.39 | 3.13 | 1.56 | MIC50 (clinically isolated MRSA): 3.77 µg/mL; MIC90 (clinically isolated MRSA): 9.47 µg/mL |
| Nc1ccc[n+](CC2=C(C(=O)[O-])N3C(=O)[C@@H](NC(=O)/C(=N\O)c4csc(N)n4)[C@H]3SC2)c1 [Compound (3), 7β-[2-(2-aminothiazol-4-yl)-2-syn-hydroxyiminoacetamido]-3-[(3-amino-1-pyridinio)methyl]-3-cephem-4-carboxylate hydrochloride] | 3.13 | 0.1 | 0.2 | 12.5 | 0.39 | 0.2 | 0.05 | 0.2 | 0.2 | 0.05 | 0.1 | 0.39 | 0.1 | 0.2 | 0.2 | 6.25 | 0.39 | 0.2 | 3.13 | 3.13 | MIC50 (clinically isolated MRSA): 3.94 µg/mL; MIC90 (clinically isolated MRSA): 9.21 µg/mL |
| NC(=O)c1ccc[n+](CC2=C(C(=O)[O-])N3C(=O)[C@@H](NC(=O)/C(=N\O)c4csc(N)n4)[C@H]3SC2)c1 [Compound (1), 7β-[2-(2-aminothiazol-4-yl)-2-syn-hydroxyiminoacetamido]-3-[(3-carbamoyl-1-pyridinio)methyl]-3-cephem-4-carboxylic acid chloride] | 3.13 | 0.1 | 0.39 | 6.25 | 0.78 | 0.2 | 0.39 | 0.39 | 0.39 | 0.05 | 0.2 | 0.39 | 0.2 | 0.39 | 0.78 | 25 | 0.78 | 0.39 | 3.13 | 0.78 | MIC50 (clinically isolated MRSA): 3.79 µg/mL; MIC90 (clinically isolated MRSA): 11.4 µg/mL |
